Results published in PubChem BioAssay AID743394 (Broad Institute, 2014).
Activity calls are given as the source filed them.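 The calls were made as follows: active = 40% activation versus positive control reached by fitted dose-response curve at or below highest valid tested dose; inconclusive = poor fit quality, or flat fit with activation between 30% and 70%; inactive = the rest.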

Test system: 68-5-11 mouse fibroblast XiGFP reporter, % GFP-positive imaging, 3 d
Assay: Xi-linked GFP reactivating small molecules – imaging, 68-5-11 mouse fibroblasts, cherry-pick, dose response (AID 743394);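 also: sensitizer 5-aza-dC present in the wells at 0.5 mM final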
Conditions: cells co-treated with 5-aza-dC sensitizer

Structure (SMILES)	AC40
COc1cc2c3nnc(-c4ccc(F)cc4)c-3cn(Cc3cccc(C)c3)c2cc1OC	3.74 µM
Nc1c(Br)cc2c3c(cccc13)-c1ccccc1-2	12.6 µM
Cc1ccc(C(=O)N/C(=C/c2ccc(-c3ccc([N+](=O)[O-])cc3)o2)C(=O)NCCCN(C)C)cc1	4.28 µM
CCN1CCc2c(sc(NC(=O)Nc3ccc(Cl)c(Cl)c3)c2C(N)=O)C1	0.196 µM
COC1=CC(=O)c2c(ccc3ncnc(N)c23)C1=O	9.69 µM
O=[N+]([O-])c1ccc(/C=C/C2=NN(c3ccccc3)C(c3ccco3)C2)cc1 (stereo unspecified)	1.81 µM
CN(C)CCN(Cc1ccc(Cl)cc1)c1ccccn1	> 2.1 µM (inactive)
O=[N+]([O-])c1ccc(N/N=C/c2sc(N3CCOCC3)nc2-c2ccccc2)c(S(=O)(=O)Nc2ccc(Cl)cc2)c1	1.72 µM
COc1ccc(Cn2cc3c(-c4ccc(F)cc4)nnc-3c3cc(OC)c(OC)cc32)cc1	4.05 µM
N=c1ccn2c(n1)OC1C(O)C(CO)OC12 (stereo unspecified)	19.1 µM
CC(=O)[C@@]1(O)Cc2c(O)c3c(c(O)c2[C@H](O[C@H]2C[C@H](N)[C@H](O)[C@H](C)O2)C1)C(=O)c1ccccc1C3=O	1.09 µM
N#C/C(=C\c1ccc(N2CCCCC2)o1)C(=O)Nc1cccc(Br)c1	0.406 µM
Cc1cc(/C=C2\SC(=S)N(Cc3ccco3)C2=O)c(C)n1-c1ccccc1	> 19.5 µM (inactive)
CC(=O)Nc1sc(/C(C#N)=C/c2ccc(Cl)c(Cl)c2)nc1-c1ccc(C)cc1	1.92 µM
COc1cc2c3nnc(-c4ccc(F)cc4)c-3cn(Cc3ccccc3F)c2cc1OC	1.57 µM
CCOC(=O)Cn1c(=NC(=O)c2ccc([N+](=O)[O-])s2)sc2ccccc21	7.3 µM
O=[N+]([O-])c1c(Nc2ccc(O)cc2)cc(Cl)c2nonc12	8.92 µM
N#C/C(=C/c1ccc(N2CCCCC2)o1)C(=O)NCCc1c[nH]c2ccccc12	4.77 µM
COc1cc2c3nnc(-c4ccc(F)cc4)c-3cn(Cc3ccccc3)c2cc1OC	1.23 µM
Nc1ccc2c3c(cccc13)-c1ccccc1-2	1.04 µM
COc1cc(N2CCCC2)c(OC)cc1/C=C1/NC(=S)NC1=O	> 19.5 µM (inactive)
COc1ccc(NC(=O)CCc2ccccc2)cc1S(=O)(=O)N1CCCCC1	17 µM
N#C/C(=C/c1ccc(-c2ccccc2)o1)c1nc(-c2cccs2)cs1	5.05 µM
COc1cc(/C=C/C(=O)c2ccc([N+](=O)[O-])o2)ccc1O	10.3 µM

Structure (SMILES)	AC40
Cc1cccc2cc3c(N)c(C(=O)N4CCc5ccccc54)sc3nc12	14.1 µM
COc1ccccc1N1N=C(c2ccc([N+](=O)[O-])cc2)CC1c1ccccc1 (stereo unspecified)	18.4 µM
Cc1cc(C)c2cc3c(N)c(C(=O)Nc4c(C)[nH]c(=O)[nH]c4=O)sc3nc2c1	19.3 µM
N#C/C(=C\c1ccc([N+](=O)[O-])o1)c1nc2ccccc2[nH]1	1.26 µM
N#Cc1c(-c2ccccc2F)cc(C2CC2)nc1SCC(=O)c1cccs1	7.48 µM
C=CCN1C(=O)[C@@H]2Cc3c([nH]c4ccccc34)C(c3cc(OC)c(OC)c(OC)c3)N2C1=S (stereo partly specified)	> 19.5 µM (inactive)
Nc1c(C(=O)c2ccccc2)sc2nsc(SCCN3CCCC3)c12	8.3 µM
CN1CCc2c(sc(NC(=O)c3ccc(S(=O)(=O)N4CCc5ccccc54)cc3)c2C(N)=O)C1	8.93 µM
CC1=NN(c2nc(N)nc(/C(C#N)=C/c3ccc([N+](=O)[O-])o3)n2)C(C)(C)C1	2.18 µM
CCN1/C(=C/c2ccc3cc(C)ccc3[n+]2CC)Sc2ccccc21	0.228 µM
Nc1[nH]c2cc([N+](=O)[O-])ccc2c1-c1ccccn1	4.61 µM
Cc1cc(C)cc(NC(=O)/C=C/c2ccc([N+](=O)[O-])s2)c1	1.7 µM
Cc1cccc2cc3c(N)c(C(=O)N4CCCc5ccccc54)sc3nc12	9.89 µM
CCN1/C(=C/C=C/c2oc3ccc(-c4ccccc4)cc3[n+]2CC)Oc2ccc(-c3ccccc3)cc21	0.00228 µM
CCc1cccc2cc3c(N)c(C(=O)Nc4ccc(S(=O)(=O)N5CCCC5)cc4)sc3nc12	4.01 µM
CCN1/C(=C/c2ccc3cc(C)ccc3[n+]2CC)Sc2cc(C)ccc21	2.16 µM
CCN(CC)c1ccc2cc(C(=O)c3cccs3)c(=O)oc2c1	5.34 µM
Cc1ccc(-c2cn3nc(-c4ccccc4)c(-c4ccccc4)nc3n2)cc1	7.27 µM
Cc1c2c(cc3c1[nH]c1ccccc13)C=NCC2	9.27 µM
CCOC(=O)C1=C(O)/C(=C/c2cc(OC)c(O)c(OC)c2)SC1=Nc1ccc(OC)cc1	18.3 µM
Cc1ccc2c(c1)c(/C=C/c1cc[n+](C)cc1)c(C)n2C	2.65 µM
CCN(CC)C1=CC2=CC(=C(C#N)C#N)CCC2CC1 (stereo unspecified)	8.77 µM
CN(C)S(=O)(=O)c1ccc2c(c1)/C(=C/c1cc3c([nH]1)CCCC3)C(=O)N2	1.58 µM
CCN1/C(=C\c2ccc3ccccc3[n+]2CC)Sc2cc(C)ccc21	0.668 µM

Test system: not listed separately
Assay: as above
Conditions: 68-5-11 mouse fibroblast XiGFP reporter, % GFP-positive imaging, 3 d; at 19.5 µM (top of the series); cells co-treated with 5-aza-dC sensitizer; scaled: neutral wells 0, ellipticine wells 100

Structure (SMILES)	activation
Cc1[nH]c2ccccc2c1/C=N/Nc1nc2ccccc2[nH]1	-0.075% (inactive)
Cc1ccc(C(=O)Cn2cncn2)cc1	-0.053% (inactive)
COc1ccc2c3c(n(C)c2c1)[C@H](CO)N(C(=O)CN1CCOCC1)CC31CCN(C(=O)Nc2cccc(F)c2)CC1	-0.035% (inactive)
